Our source for the IC50 values is patent US20220396577A1, “NOVEL SUBSTITUTED 1,3-8-TRIAZASPIRO[4,5] DECANE-2,4-DIONE COMPOUNDS AS INDOLEAMINE 2,3-DIOXYGENASE (IDO) AND/OR TRYPTOPHAN 2,3-DIOXYGENASE (TDO) INHIBITORS” (Merck Sharp & Dohme LLC, priority 2019, published 2022).

Bounds are passed on as bounds.

The target in one experiment is CDK9 (Cyclin T1) (Homo sapiens, UniProt P50750). The experiment can be described thus: Off-target kinase panel, ADAPTA: CDK9 (Cyclin T1). In kind it is biochemical. As to conditions: read-out: Estimated IC50 (uM) CDK9 (Cyclin T1). The source says: (§1) The activity data was obtained in a panel of 265 and 264 for compounds 1-1 and CC-1, respectively, using the ZLYTE and ADAPTA assay methods indicated in the table below.
The Adapta universal kinase assay is a homogenous, fluorescent based immunoassay for the detection of ADP. In contrast to ATP depletion assays, the Adapta assay is highly sensitive to ADP formation such that a majority of the signal change occurs in the first 10-20% conversion of ATP to ADP. This makes the Adapta universal kinase assay well suited for use with low activity kinases.
The principle of the Adapta universal kinase assay is outlined below. The assay itself can be divided into two phases: a kinase reaction phase, and an ADP detection phase. In the kinase reaction phase, all components required for the kinase reaction are added to the well, and the reaction is allowed to incubate for 60 minutes. After the reaction, a detection solution consisting of a europium labeled anti-ADP antibody, an Alexa Fluor 647 labeled ADP tracer, and EDTA (to stop the kinase reaction) is added to the assay well. […]
ADP formation is determined by calculating the emission ratio from the assay well. The emission ratio is calculated by dividing the intensity of the tracer (acceptor) emission by the intensity of the Eu (donor) emission at 615 nm as shown in the equation below. […]
12. Read on fluorescence plate reader and analyze the data.

The next experiment deals with CLK2 (Homo sapiens, UniProt P49760). Briefly: Off-target kinase panel, ZLYTE: CLK2. As to conditions: read-out: Estimated IC50 (uM) CLK2. In kind it is biochemical.
Source text: as §1
The ZLYTE biochemical assay employs a fluorescence-based, coupled-enzyme format and is based on the differential sensitivity of phosphorylated and non-phosphorylated peptides to proteolytic cleavage. The peptide substrate is labeled with two fluorophores—one at each end—that make up a Fluorescence Resonance Energy Transfer (FRET) pair.
In the primary reaction, the kinase transfers the gamma-phosphate of ATP to a single tyrosine, serine or threonine residue in a synthetic FRET-peptide. In the secondary reaction, a site-specific protease recognizes and cleaves non-phosphorylated FRET-peptides. Phosphorylation of FRET-peptides suppresses cleavage by the Development Reagent. […] A ratiometric method, which calculates the ratio (the Emission Ratio) of donor emission to acceptor emission after excitation of the donor fluorophore at 400 nm, is used to quantitate reaction progress, as shown in the equation below. […]
Both cleaved and uncleaved FRET-peptides contribute to the fluorescence signals and therefore to the Emission Ratio. The extent of phosphorylation of the FRET-peptide can be calculated from the Emission Ratio. […]
10. Read on fluorescence plate reader and analyze the data.

Sequence of CLK2 (P49760 whole entry): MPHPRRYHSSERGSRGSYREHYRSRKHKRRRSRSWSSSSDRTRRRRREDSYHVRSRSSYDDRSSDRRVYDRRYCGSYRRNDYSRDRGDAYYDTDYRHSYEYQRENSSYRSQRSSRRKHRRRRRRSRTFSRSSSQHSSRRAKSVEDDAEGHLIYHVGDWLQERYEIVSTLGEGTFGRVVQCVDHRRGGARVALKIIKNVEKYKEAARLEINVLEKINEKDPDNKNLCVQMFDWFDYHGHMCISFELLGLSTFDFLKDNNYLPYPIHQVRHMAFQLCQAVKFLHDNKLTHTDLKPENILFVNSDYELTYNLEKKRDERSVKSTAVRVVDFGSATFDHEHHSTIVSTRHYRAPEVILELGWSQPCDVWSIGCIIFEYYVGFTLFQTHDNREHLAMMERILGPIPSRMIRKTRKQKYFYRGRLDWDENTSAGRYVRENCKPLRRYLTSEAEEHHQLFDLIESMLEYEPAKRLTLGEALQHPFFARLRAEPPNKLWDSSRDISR
Sequence of CDK9 (Cyclin T1) (P50750 whole entry): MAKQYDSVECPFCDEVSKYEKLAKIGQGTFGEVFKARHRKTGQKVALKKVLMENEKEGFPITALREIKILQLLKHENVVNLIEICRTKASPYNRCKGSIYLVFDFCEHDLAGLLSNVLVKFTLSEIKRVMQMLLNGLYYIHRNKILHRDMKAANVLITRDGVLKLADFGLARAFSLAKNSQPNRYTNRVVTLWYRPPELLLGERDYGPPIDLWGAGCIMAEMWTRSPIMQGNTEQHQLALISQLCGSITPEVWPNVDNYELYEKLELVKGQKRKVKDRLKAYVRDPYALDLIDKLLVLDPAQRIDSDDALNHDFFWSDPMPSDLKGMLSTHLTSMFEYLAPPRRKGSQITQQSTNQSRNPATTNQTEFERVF
Sequence of CDK9 (Cyclin T1) (O60563 whole entry partner): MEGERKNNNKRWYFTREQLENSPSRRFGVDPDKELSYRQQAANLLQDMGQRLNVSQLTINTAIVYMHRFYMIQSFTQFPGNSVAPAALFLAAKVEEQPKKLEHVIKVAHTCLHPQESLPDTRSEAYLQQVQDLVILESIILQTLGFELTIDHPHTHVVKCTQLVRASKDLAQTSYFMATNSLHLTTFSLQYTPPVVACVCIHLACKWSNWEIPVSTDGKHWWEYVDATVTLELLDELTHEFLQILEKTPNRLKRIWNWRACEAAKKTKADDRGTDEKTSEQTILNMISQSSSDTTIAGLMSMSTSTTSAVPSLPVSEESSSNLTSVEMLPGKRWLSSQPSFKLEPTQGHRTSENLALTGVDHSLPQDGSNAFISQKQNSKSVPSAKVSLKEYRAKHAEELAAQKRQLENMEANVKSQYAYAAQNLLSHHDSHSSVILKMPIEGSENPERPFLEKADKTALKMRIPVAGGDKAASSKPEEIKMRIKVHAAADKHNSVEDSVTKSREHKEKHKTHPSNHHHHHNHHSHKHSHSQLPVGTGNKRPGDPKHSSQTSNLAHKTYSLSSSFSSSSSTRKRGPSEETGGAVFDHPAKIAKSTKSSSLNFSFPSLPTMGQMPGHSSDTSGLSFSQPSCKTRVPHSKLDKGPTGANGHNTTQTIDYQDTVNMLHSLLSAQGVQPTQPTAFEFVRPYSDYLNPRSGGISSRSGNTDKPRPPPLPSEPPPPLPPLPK

Consider `O=C1NC(=O)C2(CCN(c3cc(Cl)cc4[nH]ncc34)CC2)N1` [CC-1], for which the IC50 (as a rule, the point on the concentration scale where inhibition reaches its midpoint) at CDK9 (Cyclin T1) was 0.15 µM; on CLK2, 0.35 µM.

For the compound `C[C@@H]1CN(c2cc(Br)cc3[nH]ncc23)CC[C@]12NC(=O)NC2=O` (single isomer, unassigned) [Compound 1-1], the IC50 at CDK9 (Cyclin T1) was over 2 µM; on CLK2 it was 0.73 µM.
